# According to patent US20090076105A1, “PREVENTIVE OR THERAPEUTIC AGENT FOR CEREBRAL ISCHEMIC INJURY OR CEREBRAL ISCHEMIA REPERFUSION IN STROKE” (SANWA KAGAKU KENKYUSHO CO., LTD., priority 2006, published 2009):
# Tests used:
# [1] = as reported in Hatsumei Kyokai Kokai Giho No. 2006-500058; cited from earlier work
# [2] = tested on: mouse models with middle cerebral artery occlusion; experiment: Mouse models with middle cerebral artery occlusion (MCAO, 2 h) and reperfusion: neurological symptoms, cerebral infarction size and volume; type: in vivo; conditions: for Distribution of neurological scores: score 0 (number of mice) / Distribution of neurological scores: score 1 (number of mice) / Distribution of neurological scores: score 2 (number of mice) / Distribution of neurological scores: score 3 (number of mice) / Neurological scores Mean ± SEM: scored 22 hours after reperfusion, n = 9; for Neurological scores Mean ± SEM: score 0-3
# Text: Mouse models with acute ischemic stroke, namely, mouse models with middle cerebral artery occlusion were used as evaluation systems. The experiment consists of three experiments, i.e., Experiment 1 to evaluate the therapeutic efficacy of fidarestat (control group and fidarestat administration group), Experiment 2 to evaluate the protective effect of fidarestat (control group and fidarestat administration group), and Experiment 3 to evaluate the role of AR (wild-type mouse group and AR gene-deficient mouse group).
# Used mice (C57BL/6J line, 22 to 28 g of body weight) were subjected to right middle cerebral artery occlusion (MCAO) by the filament method under gas anesthesia over 2 hours. Thereafter, anesthesia was terminated and the mice were kept in an intensive care system (ThermoCare, Inc) at 32° C. for 4 to 6 hours. The neurological symptoms, the cerebral infarction size, and the cerebral infarction volume were used as endpoints.
# The evaluation of the neurological symptoms was determined 22 hours after reperfusion based on the following four scores:
# 0: no neurological deficit (normal); 1: stretching of the opposite forefoot (mild); 2: contra lateral circling (moderate); and 3: loss of walking and righting reflex (severe).
# Evaluations of the cerebral infarction size and the cerebral infarction volume were performed as follows. After the evaluation of the neurological symptoms, the mouse brains were removed immediately and cut into 6 coronary slices with a thickness of 2 mm. In order to discover the sites of infarction, the slices were stained with 2% triphenyltetrazolium chloride (TTC) in a darkroom for 15 minutes and then fixed in 10% formalin buffer overnight. The posterior surface of each brain slice was photographed and analyzed using a digital image analyzing system (NeuroLucida, MicroBrightfield Inc.) The cerebral infarction size and the cerebral infarction volume (%) were calculated by an indirect method.
# In Experiment 1 to evaluate the therapeutic efficacy of fidarestat, fidarestat was administered to the mice at 2 mg/kg 15 minutes before reperfusion. In Experiment 2 to evaluate the protective effect of fidarestat, fidarestat was administered to the mice at 10 mg/kg 30 minutes before occlusion. Only solvent was administered to the control group. In each case, forced intragastric administration was carried out.
# [3] = Experiment 1 (therapeutic efficacy): 2 mg/kg intragastric 15 minutes before reperfusion
# [4] = Experiment 2 (protective effect): 10 mg/kg intragastric 30 minutes before occlusion
structure (smiles),measurement,setting,value
"NC(=O)[C@@H]1C[C@]2(NC(=O)NC2=O)c2cc(F)ccc2O1 [Fidarestat, (2S,4S)-6-fluoro-2′,5′-dioxospiro[chroman-4,4′-imidazolidine]-2-carboxamide]",Pharmacological effect on the blood coagulation system and the circulatory system,[1],no pharmacological effect
same,Cerebral infarction size observed after ischemic reperfusion,"[2]; Experiment 1 (therapeutic efficacy): 2 mg/kg 15 minutes before reperfusion, FIG. 1, brain slice Nos. 3 and 4",significantly reduced
same,Cerebral infarction volume,"[2]; Experiment 1 (therapeutic efficacy): 2 mg/kg 15 minutes before reperfusion, FIG. 4",the same result was also obtained
same,(Dead) number of mice,[2]; [3],(n = 2)
same,Distribution of neurological scores: score 0 (number of mice),[2]; [3],0
same,Distribution of neurological scores: score 1 (number of mice),[2]; [3],7
same,Distribution of neurological scores: score 2 (number of mice),[2]; [3],2
same,Distribution of neurological scores: score 3 (number of mice),[2]; [3],0
same,Neurological scores Mean ± SEM,"[2]; Experiment 1 (therapeutic efficacy): 2 mg/kg intragastric 15 minutes before reperfusion, P < 0.02 vs vehicle",1.22 ± 0.15
same,Cerebral infarction size observed after ischemic reperfusion,"[2]; Experiment 2 (protective effect): 10 mg/kg 30 minutes before occlusion, FIG. 2, brain slice Nos. 3 and 4",significantly reduced
same,Cerebral infarction volume,"[2]; Experiment 2 (protective effect): 10 mg/kg 30 minutes before occlusion, FIG. 5",the same result was also obtained
same,Distribution of neurological scores: score 0 (number of mice),[2]; [4],0
same,Distribution of neurological scores: score 1 (number of mice),[2]; [4],7
same,Distribution of neurological scores: score 2 (number of mice),[2]; [4],2
same,Distribution of neurological scores: score 3 (number of mice),[2]; [4],0
same,Neurological scores Mean ± SEM,"[2]; Experiment 2 (protective effect): 10 mg/kg intragastric 30 minutes before occlusion, P < 0.05 vs vehicle",1.22 ± 0.14
same,Effect on the worsening of the neurological symptoms observed after ischemic reperfusion,[2]; Experiments 1 and 2 (2 mg/kg 15 minutes before reperfusion; 10 mg/kg 30 minutes before occlusion),significant effect
